# Assay results published in patent US20210000782A1, “APPLICATION OF DROFENINE OR SALT THEREOF TO PREPARATION OF MEDICINE FOR TREATING PERIPHERAL NEURON AXONAL INJURY AND PERIPHERAL RELATED NEUROPATHY” (NANJING UNIVERSITY OF CHINESE MEDICINE, priority 2018, published 2021).
# Legend:
# [1] = target: BChE (Homo sapiens, UniProt P06276); details: background statement; cited from earlier work
# [2] = tested on: db/db type II diabetic mice; assay: Motor nerve conduction velocity, type II diabetic peripheral neuropathy; assay type: in vivo; details: for Motor nerve conduction velocity: db/db mice, n = 6
# Description: (§1) 2) Animal grouped administration condition (type II diabetic mice): 16-week-old db/db mice were selected and subjected to adaptive feeding for a week. Grouping was performed according to body weights and blood glucose to obtain a control group, a model group, a drofenine low-dose group (10 mg/kg), and a drofenine medium-dose group (20 mg/kg). Before administration, the motor nerve conduction velocity and a 50% mechanical pain threshold were measured to determine DPN symptoms. Intraperitoneal injection of drofenine was performed for 4 weeks. The mechanical pain, heat pain and motor nerve conduction velocity were tested in each week.
# (§2) 5) Motor nerve conduction velocity testing experiment: (1) Electrode placement: A stimulation electrode was placed at a nerve trunk, a recording electrode was placed at a muscle belly, a reference electrode was placed at a muscle tendon, and a ground wire was placed between the stimulation electrode and the recording electrode. (2) Motor nerve conduction velocity calculation: Super-strong stimulation was performed on distal and proximal ends of the nerve trunk, 2 compound muscle action potentials might be recorded on muscles dominated by this nerve, and different latency periods thereof were measured. The nerve conduction velocity was obtained by dividing a distance between the distal and proximal ends by a latency period difference between two points. A calculation formula was: Nerve conduction velocity (m/s)=distance between two points (cm)×10/latency period difference between two points.
# [3] = tested on: db/db type II diabetic mice; assay: Paw withdrawal experiment (Von Frey, 50% mechanical pain threshold), type II diabetic peripheral neuropathy; assay type: in vivo; details: n = 6
# Description: (§3) The experiment was based on that when rodents received a mechanical stimulation at their paws, they generated withdrawal reflex. A Von Frey may provide stimulation force in a range of 0.008 g to 300 g. A magnitude of the stimulation force was determined by a thickness and an extending length of a nylon wire. The nylon wire with a proper thickness was selected according to practical conditions in the experiment. The proper extending length was regulated to realize vertical stimulation on the skin. The magnitude of the stimulation force might be regulated by regulating the extending length and changing the nylon wire until the nylon wire bended. The response of mice on the pain was evaluated on the basis.
# as §1
# (§4) 2) Von Frey tactile measuring suits were purchased from a company, and a plantar test instrument was purchased from UGO company.
# (§5) 3) Paw withdrawal Experiment: A nylon wire with a proper thickness was selected. A proper extending length was regulated to realize vertical simulation on the skin. The magnitude of stimulation force might be regulated by regulating the extending length and changing the nylon wire until the nylon wire bended. Each mouse was tested for six times to determine a threshold. A 50% mechanical pain threshold of the mice was calculated according to 50% threshold=(10^ (x^f+kδ))/10000.
# [4] = tested on: STZ-induced type I diabetic mice; assay: Motor nerve conduction velocity, type I diabetic peripheral neuropathy; assay type: in vivo, C57BL/6J mice; details: for Motor nerve conduction velocity: STZ mice, n = 6
# Description: (§6) 1) Animal grouped administration condition (type I diabetic mice): C57BL/6J mice were purchased from Beijing Vital River. After adaptive feeding for a week, intraperitoneal injection of STZ (180 mg/kg) was performed. Blood glucose was measured after 4-7 days. Mice with the blood glucose higher than 16 mmol/L were randomly selected. After 6 weeks after the STZ injection, grouping was performed according to body weights and the blood glucose to obtain a control group (non-diabetic mice), a model group (DPN mice), drofenine (10 mg/kg), and drofenine (20 mg/kg). Intraperitoneal injection of drofenine was performed for 4 weeks. The motor nerve conduction velocity, mechanical pain and heat pain were respectively tested in 0th week, 4th week and 8th week after the STZ injection.
# as §2
# [5] = tested on: STZ-induced type I diabetic mice; assay: Paw withdrawal experiment (Von Frey, 50% mechanical pain threshold), type I diabetic peripheral neuropathy; assay type: in vivo, C57BL/6J mice; details: n = 6
# Description: as §3, §6, §4, §5
# [6] = tested on: DRG primary cells (peripheral sensory neurons); assay: Growth of peripheral sensory neurites, β-tubulin III fluorescent staining; assay type: cell-based, C57BL6 mouse; details: 24 hours incubation with different concentrations of drofenine, FIG. 1 and FIG. 2
# Description: The experiment was based on that DPN firstly leads to abnormality of sensory neurons, and the main pathological changes were axonal atrophy and degeneration, or even disappearance. For DRG, as peripheral sensory neurons, its neurite growth state is closely related to a development process of the DPN. The inventor of the present invention added DMSO and different concentrations of drofenine into DRG primary cells for common incubation for a certain time. Then, the growth of the neurites was determined by a β-tubulin III fluorescent staining detection method, and lengths were quantified by ImageJ. The effect of the drofenine on promoting the growth of the peripheral sensory neurites was evaluated on the basis.
# 1) β-tubulin III for fluorescent staining was purchased from Sigma company. All cell culture reagents were purchased from Gibco company. DRG cells were taken from C57BL6 mouse spines.
# 2) β-tubulin III staining experiment: DRG cells were inoculated in a 12-hole plate at 100 cells/hole. After the DRG cells were attached to a wall overnight, incubation was performed for 24 hours by different concentrations of drofenine. Then, an original culture medium is removed. 4% of paraformaldehyde was added into each hole for immobilization for 15 min. Permeabilization was performed for 5 min by 0.3% Triton. After PBS washing, room-temperature sealing was performed for 1 h. […]
# [7] = tested on: STZ-induced type I diabetic mice; assay: Heat pain testing experiment, type I diabetic peripheral neuropathy; assay type: in vivo, C57BL/6J mice; details: n = 6
# Description: as §6, §4
# (§7) 4) Heat pain testing experiment: An infrared instrument was placed under the sole of the mouse, and kept still. The time was recorded when the paw of the mouse withdrew. This time was heat pain response time of the mouse.
# [8] = tested on: db/db type II diabetic mice; assay: Heat pain testing experiment, type II diabetic peripheral neuropathy; assay type: in vivo; details: n = 6
# Description: as §1, §4, §7
# [9] = 10 mg/kg intraperitoneal, administration week 0, mean ± SEM
# [10] = 10 mg/kg intraperitoneal, administration week 1, mean ± SEM
# [11] = 10 mg/kg intraperitoneal, administration week 2, mean ± SEM
# [12] = 10 mg/kg intraperitoneal, administration week 3, mean ± SEM
# [13] = 10 mg/kg intraperitoneal, administration week 4, mean ± SEM
# [14] = 20 mg/kg intraperitoneal, administration week 0, mean ± SEM
# [15] = 20 mg/kg intraperitoneal, administration week 1, mean ± SEM
# [16] = 20 mg/kg intraperitoneal, administration week 2, mean ± SEM
# [17] = 20 mg/kg intraperitoneal, administration week 3, mean ± SEM
# [18] = 20 mg/kg intraperitoneal, administration week 4, mean ± SEM
# BChE, sequence (P06276 29-602, species assumed): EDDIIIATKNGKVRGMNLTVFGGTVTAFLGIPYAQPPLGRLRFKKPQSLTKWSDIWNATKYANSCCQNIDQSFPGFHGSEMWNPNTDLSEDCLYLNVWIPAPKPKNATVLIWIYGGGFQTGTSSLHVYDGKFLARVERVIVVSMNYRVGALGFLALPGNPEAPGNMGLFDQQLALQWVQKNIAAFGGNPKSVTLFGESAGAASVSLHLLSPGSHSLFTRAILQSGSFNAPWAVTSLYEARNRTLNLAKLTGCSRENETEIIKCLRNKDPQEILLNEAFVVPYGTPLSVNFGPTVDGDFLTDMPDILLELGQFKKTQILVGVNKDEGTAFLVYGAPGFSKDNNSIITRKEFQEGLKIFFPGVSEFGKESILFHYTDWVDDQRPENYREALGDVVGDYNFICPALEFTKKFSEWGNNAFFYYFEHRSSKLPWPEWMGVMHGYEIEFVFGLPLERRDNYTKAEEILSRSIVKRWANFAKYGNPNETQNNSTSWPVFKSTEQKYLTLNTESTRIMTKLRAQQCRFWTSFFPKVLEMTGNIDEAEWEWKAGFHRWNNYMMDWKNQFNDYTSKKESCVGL
smiles,measurement,setting,value
CCN(CC)CCOC(=O)C(c1ccccc1)C1CCCCC1 (stereo not shown) [Drofenine],BChE inhibition,[1],effective BChE competitive inhibitor
same,Motor nerve conduction velocity,[2]; [9],34.61 ± 1.06 m/s
same,Motor nerve conduction velocity,[2]; [10],36.55 ± 2.14 m/s
same,Motor nerve conduction velocity,[2]; [11],38.23 ± 3.20 m/s
same,Motor nerve conduction velocity,[2]; [12],39.34 ± 2.89 m/s
same,Motor nerve conduction velocity,[2]; [13],40.12 ± 2.87 m/s
same,Motor nerve conduction velocity,[2]; [14],35.63 ± 1.03 m/s
same,Motor nerve conduction velocity,[2]; [15],38.82 ± 1.37 m/s
same,Motor nerve conduction velocity,[2]; [16],40.23 ± 2.02 m/s
same,Motor nerve conduction velocity,[2]; [17],41.56 ± 2.35 m/s
same,Motor nerve conduction velocity,[2]; [18],42.28 ± 2.26 m/s
same,motor nerve conduction velocity and sensation loss of db/db type II diabetic peripheral neuropathy,"[2]; summary in words of Tables 4-6, db/db mice",significantly relieve
same,50% paw withdrawal threshold,[3]; [9],2.81 ± 0.17 g
same,50% paw withdrawal threshold,[3]; [10],2.82 ± 0.22 g
same,50% paw withdrawal threshold,[3]; [11],2.21 ± 0.13 g
same,50% paw withdrawal threshold,[3]; [12],2.09 ± 0.34 g
same,50% paw withdrawal threshold,[3]; [13],1.98 ± 0.21 g
same,50% paw withdrawal threshold,[3]; [14],2.83 ± 0.19 g
same,50% paw withdrawal threshold,[3]; [15],2.62 ± 0.26 g
same,50% paw withdrawal threshold,[3]; [16],2.01 ± 0.13 g
same,50% paw withdrawal threshold,[3]; [17],1.92 ± 0.12 g
same,50% paw withdrawal threshold,[3]; [18],1.82 ± 0.01 g
same,Motor nerve conduction velocity,[4]; [9],39.61 ± 1.06 m/s
same,Motor nerve conduction velocity,[4]; [11],40.55 ± 2.14 m/s
same,Motor nerve conduction velocity,[4]; [14],40.63 ± 1.03 m/s
same,Motor nerve conduction velocity,[4]; [16],43.82 ± 1.37 m/s
same,motor nerve conduction velocity and sensation loss of the type I diabetic peripheral neuropathy,"[4]; summary in words of Tables 1-3, STZ mice",significantly relieve
same,50% paw withdrawal threshold,[5]; [9],2.77 ± 0.19 g
same,50% paw withdrawal threshold,[5]; [10],2.53 ± 0.25 g
same,50% paw withdrawal threshold,[5]; [11],1.31 ± 0.13 g
same,50% paw withdrawal threshold,[5]; [12],1.40 ± 0.13 g
same,50% paw withdrawal threshold,[5]; [13],1.45 ± 0.11 g
same,50% paw withdrawal threshold,[5]; [14],2.77 ± 0.19 g
same,50% paw withdrawal threshold,[5]; [15],2.06 ± 0.31 g
same,50% paw withdrawal threshold,[5]; [16],1.31 ± 0.13 g
same,50% paw withdrawal threshold,[5]; [17],1.27 ± 0.12 g
same,50% paw withdrawal threshold,[5]; [18],1.35 ± 0.10 g
same,growth of the peripheral sensory neurites,[6],promote the growth (quantitative diagram) of the peripheral sensory neurites in a concentration dependent way
same,Heat response,[7]; [9],11.43 ± 0.98 s
same,Heat response,[7]; [10],11.12 ± 0.66 s
same,Heat response,[7]; [11],10.28 ± 0.68 s
same,Heat response,[7]; [12],8.96 ± 0.26 s
same,Heat response,[7]; [13],8.78 ± 0.26 s
same,Heat response,[7]; [14],10.3 ± 0.60 s
same,Heat response,[7]; [15],10.77 ± 0.94 s
same,Heat response,[7]; [16],8.64 ± 0.69 s
same,Heat response,[7]; [17],7.91 ± 0.54 s
same,Heat response,[7]; [18],7.71 ± 0.68 s
same,Heat response,[8]; [9],10.43 ± 0.98 s
same,Heat response,[8]; [10],13.52 ± 0.69 s
same,Heat response,[8]; [11],10.58 ± 0.32 s
same,Heat response,[8]; [12],8.96 ± 0.56 s
same,Heat response,[8]; [13],9.78 ± 0.56 s
same,Heat response,[8]; [14],10.39 ± 0.30 s
same,Heat response,[8]; [15],10.77 ± 0.54 s
same,Heat response,[8]; [16],8.54 ± 0.79 s
same,Heat response,[8]; [17],8.51 ± 0.55 s
same,Heat response,[8]; [18],8.01 ± 0.68 s
